Results from patent publication US20240366648A1, “NAD-AUGMENTATION THERAPY FOR PARKINSON'S DISEASE” (Vestlandets Innovasjonsselskap AS (VIS), priority 2021, published 2024).

System: cerebral metabolism
Assay: FDG-PET metabolic brain network analysis (NRRP/PDRP), phase I trial
Assay type: in vivo, human
Experimental: PET-MRI imaging was performed with a 3T Siemens Biograph mMR scanner, software version VE11P-SPO3. Subjects were administered 200 MBq of 18F Fluorodeoxyglucose (FDG) before being positioned in the scanner. After 31P-MRS spectra had been acquired, an 8-channel Siemens mMR Head coil was used for further MR imaging, which was performed simultaneously with FDG PET. In all subjects, PET acquisition began 25 to 30 minutes after the injection of FDG and lasted 30 minutes. The resulting emission data were reconstructed using Siemens HD-PET algorithm with Siemens HiRes Brain MRAC, with voxel size of 2.3×2.3×5.0 mm^3. PET images were anonymized and archived as DICOM files with a matrix size of 344×344×127 and an isotropic voxel size of 2.09×2.09×2.03 mm^3.
FDG-PET scans were transferred electronically to the Center for Neurosciences at The Feinstein Institutes for Medical Research (Manhasset, NY, USA) and analyzed using automated computing pipelines implemented in MATLAB 7.5 (MathWorks, Natick, MA) using in-house Scan Analysis and Visualization (ScAnVP) software (available at http://feinsteinneuroscience.orq). Images were first pre-processed using Statistical Parametric Mapping (SPM8) software (http://fil.ion.ucl.ac.uk/spm; Wellcome Centre for Human Neuroimaging, London, UK). Of the 30 participants, the baseline scan of one NR subject was excluded on technical grounds. In the remaining subjects, FDG-PET scans acquired at visit 1 and visit 2 were aligned to produce a mean image, which was spatially normalized in standard Montreal Neurological Institute (MNI) anatomic space along with the individual scans from each time point. The normalized images were then smoothed with a 10-mm Gaussian filter in three dimensions to enhance the signal to noise ratio.
For the PET-analyses, the subjects in the NR group were classified based on their cerebral NAD-response, measured by 31P-MRS. Subjects showing increased cerebral NAD levels at visit 2 were termed “MRS-responders,” whereas subjects showing no increase in cerebral NAD were termed “MRS non-responders”.
To identify an NR-related metabolic pattern (NRRP), we analyzed paired metabolic scan data from the 10 MRS responders in the NR group (ATP-beta; NAD-total; ATP-alpha; ATP-gamma; PCr (Phosphocreatine); MP (membrane phospholipids); GPC (glycerophosphocholine); GPE (glycerophosphoethanolamine); Pi (inorganic phosphate); Pc (phosphocholine); PE (phosphoethanolamine); Total NAD/PCr; Total NAD/ATP-alpha) using ordinal trends/canonical variates analysis (OrT/CVA), a supervised form of principal component analysis (PCA) (Habeck C, Krakauer J W, Ghez C, Sackeim H A, Eidelberg D, Stern Y et al. A new approach to spatial covariance modeling of functional brain imaging data: ordinal trend analysis. Neural computation 2005; 17: 1602-1645).
This multivariate approach is designed to detect and quantify regional covariance patterns (i.e., metabolic networks) for which expression values (i.e., subject scores) increase or decrease with treatment in all or most of the subjects (Niethammer M, Tang C C, Vo A, Nguyen N, Spetsieris P, Dhawan V et al. Gene therapy reduces Parkinson's disease symptoms by reorganizing functional brain connectivity. Science translational medicine 2018; 10; Ko J H, Feigin A, Mattis P J, Tang C C, Ma Y, Dhawan V et al. Network modulation following sham surgery in Parkinson's disease. The Journal of clinical investigation 2014; 124: 3656-3666). […] Likewise, the reliability of the voxel loadings (i.e., region weights) on the resulting network topography was assessed using bootstrap resampling procedures (Mure H, Hirano S, Tang C C, Isaias I U, Antonini A, Ma Y et al. Parkinson's disease tremor—related metabolic network: characterization, progression, and treatment effects. Neuroimage 2011; 54: 1244-1253; Habeck C, Stern Y. Multivariate data analysis for neuroimaging data: overview and application to Alzheimer's disease. Cell biochemistry and biophysics 2010; 58: 53-67). […]

With `NC(=O)c1ccc[n+]([C@@H]2O[C@H](CO)[C@@H](O)[C@H]2O)c1` [NR, nicotinamide riboside] the “NR-related metabolic pattern (NRRP) topography” value (10 MRS responders, OrT/CVA, PC1) was “bilateral metabolic reductions in the caudate and putamen, extending into the adjacent globus pallidus, and in the thalamus”, the “Zmax, reduced metabolic activity as part of the NRRP network” value (shortened to “Zmax, reduced metabolic activity as part”) (Anterior Cingulate (left), BA 32, MNI −4,44,18) was 2.2 and the “Zmax, reduced metabolic activity as part” value (Anterior Cingulate (right), BA 24, MNI 4,8,48) was 2.3. The “Zmax, reduced metabolic activity as part” value (Anterior Cingulate (right), BA 32, MNI 4,46,−8) was 2.6, the “Zmax, reduced metabolic activity as part” value (Lentiform Nucleus (left), Putamen, MNI −20,10,−8) was 3.5 and the “Zmax, reduced metabolic activity as part” value (Lentiform Nucleus (left), Putamen, MNI −28,−2,−2) was 3.3. The “Zmax, reduced metabolic activity as part” value (Lentiform Nucleus (right), Putamen, MNI 22,10,−8) was 3.9, the “subjects with increased NRRP expression” value (MRS responders, p=0.018 permutation test) was 8 of 10 and the “Zmax, reduced metabolic activity as part” value (Middle Frontal Gyrus (left), BA 8, MNI −26,30,42) was 1.9. For the same compound, the “ordinal trend in NRRP expression” value (NR group as a whole, p=0.027 permutation test) was “remained significant”, the “correlation (r) of changes in NRRP expression with changes in UPDRS motor ratings, after excluding one data point” value (NR group, excluding greatest increase in UPDRS motor score, p=0.048) was −0.556 and the “correlation (r) of changes in NRRP expression with changes in UPDRS motor ratings” value (NR group, p=0.026) was −0.59. The “correlation of PDRP changes with clinical outcome” value (NR group, p=0.73) was “no correlation”, the “Zmax, reduced metabolic activity as part” value (Posterior Cingulate (bilateral), BA 31, MNI 0,−30,36) was 3.5 and the “Zmax, reduced metabolic activity as part” value (Precuneus (left), BA 7, MNI −6,−72,40) was 2.6. The “Zmax, reduced metabolic activity as part” value (Prefrontal Cortex (right), BA 9, MNI 44,16,30) was 3.0, the “Zmax, reduced metabolic activity as part” value (Superior Frontal Gyrus (left), BA 9, MNI −32,44,28) was 2.5 and the “Zmax, reduced metabolic activity as part” value (Superior Frontal Gyrus (left), BA 10, MNI −28,56,6) was 2.5. For the same compound, the “Zmax, reduced metabolic activity as part” value (Thalamus (left), Anterior, MNI −10,−22,4) was 2.5 and the “Zmax, reduced metabolic activity as part” value (Thalamus (right), Medial Dorsal, MNI 8,−18,4) was 3.0.
